Values of other authors as cited in US20090176772A1, “METHOD OF REVERSING LEFT VENTRICULAR REMODELING” (priority 2004, published 2009).

Test system: LV reverse remodeling
Conditions: historical data, Sabbah et al. (1994) Circ. 89:2852-2859; cited from earlier work

| Compound | Ability to reduce LV end-diastolic volume (FIG. 1) | Ability to reduce LV end-systolic volume (FIG. 2) |
| --- | --- | --- |
| CCOC(=O)[C@H](CCc1ccccc1)N[C@@H](C)C(=O)N1CCC[C@H]1C(=O)O [enalapril] | neither ranolazine, enalapril, nor metoprolol were independently able to reduce LV end-diastolic volume | neither ranolazine, enalapril, nor metoprolol appear to independently reduce LV end-systolic volume |
| COCCc1ccc(OCC(O)CNC(C)C)cc1 (stereo not shown) [metoprolol] | neither ranolazine, enalapril, nor metoprolol were independently able to reduce LV end-diastolic volume | neither ranolazine, enalapril, nor metoprolol appear to independently reduce LV end-systolic volume |
